The source of these data is PubChem BioAssay AID588620 (NMMLSC, 2011).

This assay in a line: concentration-dependent intrinsic compound fluorescence, S. cerevisiae AD/pABC3, flow cytometry, Cherry Pick1 hits, artefact control for antifungal efflux pump inhibitor project, dose response (AID 588620).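 Also: red emission of unstained cells excited at 488 nm measured in PE-Texas Red channel; cell median fluorescence as percent of DMSO wells so 100% equals vehicle baseline.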 The following applies: S. cerevisiae AD/pABC3 compound autofluorescence, flow cytometry; at 33.1 µM (top of the series). Background: Flow cytometry measures light scatter and fluorescence of single cells or particles in a stream.

Activity calls are given as the source filed them.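 The calls were made as follows: active = fitted half-maximal concentration below 30 µM for cell fluorescence in pump-free yeast, so likely self-fluorescent; inactive = the rest.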

In the case of `COc1ccc(/C=C/C(=O)Nc2cccc(S(=O)(=O)N3CCCC3)c2)cc1OC`, the fluorescence response, % of control is 103% (inactive).
Turning to `O=C(COC(=O)c1c2ccccc2cc2ccccc12)Nc1ncc(C(F)(F)F)cc1Cl`, the fluorescence response, % of control is 96.4% (inactive).
Regarding `O=C(Nc1ccc(O)cc1C(=O)O)c1ccc(NC(=O)c2ccco2)cc1`, the fluorescence response, % of control was 92.4% (inactive).
To `Cc1ccc(-c2cc(C(=O)Nc3ccc(S(=O)(=O)Nc4ncccn4)cc3)c3ccccc3n2)cc1` belongs 96.3% (inactive).
On to `Cc1ccc(OCc2cc(C(=O)NCC(C)(C)N3CCOCC3)no2)cc1C`, for which the fluorescence response, % of control was 116% (inactive).
In the case of `Cc1ccc(Cn2nnc3c(=O)[nH]c(C4CCN(S(=O)(=O)c5ccc(C)cc5)CC4)nc32)cc1`, the fluorescence response, % of control is 91.7% (inactive).
For `COCCn1c(=S)[nH]c2sc3c(c2c1=O)CCCC3`, the fluorescence response, % of control was 91.7% (inactive).
Turning to `COc1ccc(-c2nc(Cn3c(SCc4ccc(C)cc4)nc4ccncc43)c(C)o2)cc1OC`, the fluorescence response, % of control is 87.6% (inactive).
On to `O=C(NCC1CCCO1)c1ccc(Br)c(S(=O)(=O)N2CCOCC2)c1` (stereo not drawn), for which the fluorescence response, % of control was 96.3% (inactive).
In the case of `CCOc1ccc(OCC)c(NS(=O)(=O)c2ccc3c(c2)CCN3C(=O)C2CCC2)c1` it was 80.8% (inactive); in that of `NC1=NC[C@@H](Cc2ccc(O)cc2)N1CCCCC1CCCCC1`, 93.4% (inactive); in that of `CCOC(=O)c1cnc(SC)nc1Oc1cccc(NC(=O)c2ccc(Cl)cc2)c1`, 90.9% (inactive).
Regarding `CC(C)C(=O)N1CCC2(CC1)Oc1ccc(Cl)cc1C(=O)C21CC(c2ccc(Cl)cc2)=NO1` (stereo not drawn), the fluorescence response, % of control was 111% (inactive).
`c1cc2c(cc1C1CCCCC1)c1c3n2CCCNC3CCC1` (stereo not drawn): the fluorescence response, % of control is 132% (inactive).
`COc1cccc(-c2sc3ccc(OC)cc3c2-c2ccc(OCCN3CCOCC3)cc2)c1`: the fluorescence response, % of control is 92.4% (inactive).
To `O=S(=O)(Nc1cc(Sc2ncn[nH]2)c(O)c2ccccc12)c1ccccc1` belongs 140% (inactive); to `COc1ccc2sc(-c3ccccc3OC)c(-c3ccc(OCCN(C)C)cc3)c2c1`, 118% (inactive).
As for `Cc1cc(Cl)c(OCCCn2ccnc2)c(Br)c1`, the fluorescence response, % of control is 83.7% (inactive).
Take `CCN(CC)C(=O)CSc1nnc(-c2ccncc2)n1N`: the fluorescence response, % of control was 127% (inactive).
As to `O=c1[nH]c(C2CCN(S(=O)(=O)c3ccc4c(c3)OCCO4)CC2)nc2c1nnn2Cc1cccc(F)c1`, the fluorescence response, % of control is 172% (inactive).
For the molecule `CCOc1ccccc1-c1nc(C(N)=O)c2[nH]c(=O)n(-c3cccc(C)c3)c2n1`, the fluorescence response, % of control is 80.3% (inactive).
In the case of `COc1ccc([C@H]2CC(=O)C=C(c3ccnc4ccc(Cl)cc34)C2)cc1` it was 92.4% (inactive); in that of `Cc1ccc(-n2c(=O)[nH]c3c(C(N)=O)nc(-c4ccc(C)o4)nc32)cc1`, 99.1% (inactive); in that of `O=C(NC1CCCc2c1cnn2-c1ccccc1F)c1ccccn1` (stereo not drawn), 81.2% (inactive).
Regarding `COc1ccc(-c2sc3ccccc3c2-c2ccc(OCCN(C)C)cc2)cc1`, the fluorescence response, % of control was 112% (inactive).
Turning to `O=C(c1ccc2c(c1)OCO2)N1CCC2(CC1)Oc1ccc(F)cc1C(=O)C21CC(c2ccccc2)=NO1` (stereo not drawn), the fluorescence response, % of control was 139% (inactive).
For `CCCCc1nnc(NC(=O)COc2ccc3c(C)cc(=O)oc3c2)s1`, the fluorescence response, % of control was 134% (inactive).
With `O=C(O)Cc1ccc(NC(=O)c2ccc(NC(=O)c3ccco3)cc2)cc1`, the fluorescence response, % of control is 109% (inactive).
To `Nc1c(Cl)cc(C2=NCCn3nc4ccccc4c32)cc1Cl` belongs 88.6% (inactive).
To `C[C@H]1CN([C@@H](C)CO)C(=O)c2cc(NC(=O)Nc3cccc4ccccc34)ccc2O[C@@H]1CN(C)Cc1ccc(-c2ccccc2)cc1` belongs 102% (inactive); to `CCOc1cccc(-c2nc(C(N)=O)c3[nH]c(=O)n(-c4cccc(Cl)c4)c3n2)c1O`, 102% (inactive).
Consider `COc1cc(OC)cc(-c2sc3ccc(OC)cc3c2-c2ccc(OCCN3CCCCC3)cc2)c1`, for which the fluorescence response, % of control is 122% (inactive).
On to `COc1ccc(S(=O)(=O)N(C)C[C@H]2Oc3c(NC(=O)NC4CCCCC4)cccc3C(=O)N([C@H](C)CO)C[C@@H]2C)cc1`, for which the fluorescence response, % of control was 119% (inactive).
In the case of `CCn1ncc(Br)c1C(=O)Nc1sc2c(c1C(=O)OC)CCC2`, the fluorescence response, % of control is 117% (inactive).
As for `CC(C)(C)C(=O)CSc1nc2c(c(-c3cccs3)c1C#N)CCC2`, the fluorescence response, % of control is 92.4% (inactive).
With `CC1(C)Cc2c(cnn2-c2ccc(F)cc2)C(NC(=O)c2cnccn2)C1` (stereo not drawn), the fluorescence response, % of control was 102% (inactive).
Turning to `O=C(/C=C/c1ccccc1Cl)NCCc1ccccc1`, the fluorescence response, % of control was 89.7% (inactive).
`COc1cc2c(cc1OC)C(=O)N1[C@H]3c4cc(C)ccc4OC[C@@H]3[C@H](c3ccccc3)[C@]1(C)C(=O)N2`: the fluorescence response, % of control was 99.3% (inactive).
In the case of `COc1ccc2cc(CN(CC3CCCO3)S(=O)(=O)c3ccc(C(C)=O)cc3)c(=O)[nH]c2c1` (stereo not drawn) it was 78.2% (inactive); in that of `CC(C)c1ccc(S(=O)(=O)Nc2ccc(O)c(Sc3ncn[nH]3)c2)cc1`, 151% (inactive).
For the molecule `COc1ccccc1-c1sc2ccccc2c1-c1ccc(OCCN2CCCCC2)cc1`, the fluorescence response, % of control was 102% (inactive).
As to `S=C(Nc1ccc(Cl)cc1Cl)N1CCCCC1`, the fluorescence response, % of control was 135% (inactive).
As for `O=c1[nH]c(C2CCN(S(=O)(=O)c3ccccc3C(F)(F)F)CC2)nc2c1nnn2Cc1ccccc1`, the fluorescence response, % of control was 92.4% (inactive).
Turning to `O=C(Cn1c(COc2ccccc2)nc2ccccc21)Nc1cc(Cl)c(Cl)cc1Cl`, the fluorescence response, % of control is 87.6% (inactive).
Take `O=C1/C(=C/c2ccc(O)c(O)c2)Oc2cc(O)ccc21`: the fluorescence response, % of control was 426% (inactive).
To `Cc1ccccc1S(=O)(=O)Nc1nc2ccccc2nc1N1CCc2ccccc2C1` belongs 103% (inactive); to `Cc1ccc(CCNC(=O)CCCn2nc(C)c3c(C)n(-c4ccc(C)cc4)nc3c2=O)cc1`, 101% (inactive); to `COc1ncccc1C(=O)NC1CCCc2c1cnn2-c1cc(C)cc(C)c1` (stereo not drawn), 76.4% (inactive).
With `COC(=O)c1ccc(CSc2nnc3c(n2)[nH]c2ccccc23)cc1`, the fluorescence response, % of control is 139% (inactive).
For `Cc1sc2ncnc(SC(C)C(=O)N3c4ccccc4Sc4ccccc43)c2c1C` (stereo not drawn), the fluorescence response, % of control was 126% (inactive).
Turning to `COc1cccc(-c2sc3ccc(OC)cc3c2-c2ccc(OCCN3CCCC3)cc2)c1`, the fluorescence response, % of control was 112% (inactive).
To `O=C1C(Cc2ccccc2)Nc2ncnc(N3CCN(c4ccccc4)CC3)c2N1Cc1ccc(Cl)cc1` (stereo not drawn) belongs 97.1% (inactive).
As to `COc1ccc(-c2nc3ccccc3c(=O)n2CCOc2ccccc2C)cc1`, the fluorescence response, % of control is 103% (inactive).
